Measurements as given in patent US12558317B2, “Compositions and methods for treating disorders ameliorated by muscarinic receptor activation” (Karuna Therapeutics, Inc., priority 2018, dated 2026).

Tests used:
[1] = 26-week study of Alzheimer's disease; cited from earlier work
[2] = KAR-001 Phase I study: xanomeline pharmacokinetics; conditions: human, in vivo, 225 mg daily; for AUC / Cmax: oral, geometric mean; for AUC: Xanomeline AUC0-tau; for Cmax: Xanomeline Cmax
Description: A Phase I, double-blind, randomized multiple-dose pilot study was conducted with xanomeline administered alone compared to xanomeline administered with trospium chloride in normal healthy volunteers. […]

[3] = tested on: normal healthy volunteers; test: KAR-001 Phase I study: safety and tolerability, cholinergic adverse events; assay type: in vivo, human
[4] = KAR-001 Safety Population, cholinergic TEAE, number of individual occurrences
[5] = KAR-001 Safety Population, cholinergic TEAE, number of subjects
[6] = KAR-001 Safety Population, cholinergic TEAE, percentage of subjects in arm

In the case of CCCCCCOc1nsnc1C1=CCCN(C)C1 [xanomeline], the dropout rate [1] is given as 56%, the Tmax ([2]; KAR-001 Day 3, median) is given as 2 h and the AUC ([2]; KAR-001 Day 3) is given as 12.6 ng·h/mL. It also gave an AUC ([2]; KAR-001 Day 9) of 24.8 ng·h/mL, a Cmax ([2]; KAR-001 Day 3) of 2.95 ng/mL and a Cmax ([2]; KAR-001 Day 9) of 4.57 ng/mL. For the same molecule, the “AE leading to discontinuation (D/C), # events” value ([3]; KAR-001) was 2, the “AE leading to discontinuation (D/C), %” value ([3]; KAR-001) was 6.1% and the “Any SAE, %” value ([3]; KAR-001) was “(0.0) %”. The “Any clinically significant TEAE, # events” value ([3]; KAR-001) was 5, the “Any clinically significant TEAE, %” value ([3]; KAR-001) was 15.2% and the “Any study drug-related TEAE, # events” value ([3]; KAR-001) was 92. For the same molecule, the “Any study drug-related TEAE, %” value ([3]; KAR-001) was 69.7%, the “Diarrhea, # of events” value ([3]; KAR-001) was 8 and the “Diarrhea, % of subjects” value ([3]; KAR-001) was 21.2%. The “Diarrhea, n subjects” value ([3]; KAR-001) was 7, the “Max Severity of TEAE: Mild, %” value ([3]; KAR-001) was “(66.7) N/A %” and the “Max Severity of TEAE: Moderate, %” value ([3]; KAR-001) was “(15.2) N/A %”. For the same molecule, the “Max Severity of TEAE: Severe, %” value ([3]; KAR-001) was “(0.0) %”, the “Max severity of study drug-related TEAE: Mild, %” value ([3]; KAR-001) was “(57/6) N/A” and the “Max severity of study drug-related TEAE: Moderate, %” value ([3]; KAR-001) was “(12.1) N/A %”. For the same molecule, the “Max severity of study drug-related TEAE: Severe, %” value ([3]; KAR-001) was “(0.0) N/A %”, the “Nausea, # of events” value ([3]; KAR-001) was 11 and the “Nausea, % of subjects” value ([3]; KAR-001) was 24.2%. For the same molecule, the “Nausea, n subjects” value ([3]; KAR-001) was 8, the “Salivation (salivary hypersecretion), % of subjects” value ([3]; KAR-001) was 36.4% and the “Salivation, # of events” value ([3]; KAR-001) was 16. The “Salivation, n subjects” value ([3]; KAR-001) was 12, the “Study drug related AE leading to D/C, # events” value ([3]; KAR-001) was 1 and the “Study drug related AE leading to D/C, %” value ([3]; KAR-001) was 3.0%. For the same molecule, the “Subjects with any TEAE, # events” value ([3]; KAR-001) was 108, the “Subjects with any TEAE, %” value ([3]; KAR-001) was 81.8% and the “Sweating (hyperhidrosis), % of subjects” value ([3]; KAR-001) was 48.5%. The “Sweating, # of events” value ([3]; KAR-001) was 24, the “Sweating, n subjects” value ([3]; KAR-001) was 16 and the “Vomiting, # of events” value ([3]; KAR-001) was 5. The “Vomiting, % of subjects” value ([3]; KAR-001) was 15.2%, the “Vomiting, n subjects” value ([3]; KAR-001) was 5 and the “Cholinergic adverse events: Any TEAEs, # of events” value ([3]; KAR-001, healthy volunteers) was 64. For the same molecule, the “Cholinergic adverse events: Any TEAEs, n subjects” value ([3]; KAR-001, healthy volunteers) was 21, the “Cholinergic adverse events: Any TEAEs, % of subjects” value ([3]; KAR-001, healthy volunteers, listed as Xanomeline + placebo) was 63.6% and the “Cholinergic adverse events: Any TEAEs, % of subjects” value ([3]; KAR-001, healthy volunteers, listed as xanomeline+placebo) was 63%. For the same molecule, the “Diarrhea, # occurrences” value [3, 4] was 8, the “Gastrointestinal disorders, # occurrences” value [3, 4] was 40 and the “Hyperhidrosis, # occurrences” value [3, 4] was 24. The “Nausea, # occurrences” value [3, 4] was 11, the “Salivary hypersecretion, # occurrences” value [3, 4] was 16 and the “Skin and subcutaneous tissue disorders, # occurrences” value [3, 4] was 24. For the same molecule, the “Vomiting, # occurrences” value [3, 4] was 5, the “Diarrhea, n subjects” value [3, 5] was 7 and the “Gastrointestinal disorders, n subjects” value [3, 5] was 18. For the same molecule, the “Hyperhidrosis, n subjects” value [3, 5] was 16, the “Nausea, n subjects” value [3, 5] was 8 and the “Salivary hypersecretion, n subjects” value [3, 5] was 12. For the same molecule, the “Skin and subcutaneous tissue disorders, n subjects” value [3, 5] was 16, the “Vomiting, n subjects” value [3, 5] was 5 and the “Diarrhea, % of subjects” value [3, 6] was 20.6%. For the same molecule, the “Gastrointestinal disorders, % of subjects” value [3, 6] was 52.9%, the “Hyperhidrosis, % of subjects” value [3, 6] was 47.1% and the “Nausea, % of subjects” value [3, 6] was 23.5%. For the same molecule, the “Salivary hypersecretion, % of subjects” value [3, 6] was 35.3%, the “Skin and subcutaneous tissue disorders, % of subjects” value [3, 6] was 47.1% and the “Vomiting, % of subjects” value [3, 6] was 14.7%. The “Subjects with any TEAEs (cholinergic), # occurrences” value ([3]; KAR-001 Safety Population, number of individual occurrences) was 64, the “Subjects with any TEAEs (cholinergic), n subjects” value ([3]; KAR-001 Safety Population, number of subjects) was 21 and the “Subjects with any TEAEs (cholinergic), % of subjects” value ([3]; KAR-001 Safety Population, percentage of subjects in arm) was 61.8%.

For CCCCCCOc1nsnc1-c1ccc[n+](C)c1 [Compound V], the mutagenic potential (Mutagenic potential) was “negative”.
